Test results published in PMC12668304, “A Triple Threat Against Ovarian Cancer: Os(II)‐Pt(IV)‐Ceritinib Conjugates for Photodynamic Therapy, Chemotherapy, and Immunogenic Cell Death Induction” (Angewandte Chemie (International Ed. in English), 2025).
Like-named read-outs stand apart in the source and are kept apart here.

What was measured:
A549 cells = experiment: (Photo-)cytotoxicity on 2D cell monolayers, resazurin assay; type: cell-based; details: for IC50: A549, normoxic, 4 h exposure
Description: (§1) The 2D cytotoxicity and phototoxicity profiles of Os‐Pt‐Cer and controls, were evaluated in a panel of cancerous cell lines, including A2780 (ovarian carcinoma), A549 (non‐small cell lung carcinoma), and MCA205 (murine fibrosarcoma), as well as a non‐cancerous retinal pigment epithelial cell line (RPE‐1). Cells were treated with the compounds (0.003–100 µM) for 4 h, either kept in the dark or irradiated at 670 nm (13.5 J cm^− ^2) (Table S4 and Figure S22) or 740 nm (12.6 J cm^− ^2) and viability was assessed 44 h post‐treatment. To verify robustness, the incubation was extended to 72 h. […]
(§2) Human ovarian cancer (A2780) cells and mouse fibrosarcoma cells (MCA205) were cultured in RPMI media. Retinal pigment epithelium (RPE -1) cells were cultured in DMEM/F -12 medium. Lung cancer cells (A549) were cultured in F -12K medium. These cell lines were complemented with 10% of fetal bovine serum, 100 U/mL penicillin -streptomycin mixture, and maintained in a humidified atmosphere […]
(§3) (Photo-)cytotoxicity on 2D cell monolayers
(§4) The cytotoxicity of the compounds was assessed by measuring cell viability using a resazurin assay.
(§5) The cells were seeded in triplicates in 96 well plates with a density of 10 4 cells per well in 100 μL of media. After 24 h, the medium was removed, and the cells were treated with increasing concentrations (0.003 → 100 µM) of the compounds diluted in cell media , achieving a total volume of 100 μL/well.
(§6) The cells were incubated with the compound for 4 h (final incubation time 48 h) or 24 h (final incubation time 72 h). After this time, the media was removed and replaced with 100 μL of fresh medium. For the phototoxicity studies, the cells were exposed to light with an Atlas Photonics LUMOS BIO irradiation system. Each well was constantly irradiated at 670 nm (60 min, 13.50 J·cm-2) or 740 nm (60 min, 12.60 J·cm-2). During the irradiation, the temperature of the plate was maintained at 37 °C. The cells were grown in the incubator for an additional 44 or 48 h, respectively. For the determination of the dark cytotoxicity, the cells were not irradiated and after the medium exchange directly incubated for 44 h.
(§7) After this time, the medium was replaced with fresh medium containing resazurin (0.2 mg/mL). After […]
(§8) 4 h of incubation, the conversion of resazurin into resorufin was determined upon excitation at 540 nm and measurement of its emission at 590 nm using a Cytation 5 Imaging Reader from BioTek. The obtained data was analysed with the GraphPad Prism software […]
(§9) After 24 h of incubation at 37 °C, 5% CO 2, plates were read using a SpectraMaxM2 Microplate Reader ( λexc = 540 nm; λread = 590 nm). Fluorescence data were normalised, and data were fitted using GraphPad Prism Software, and IC 50 was calculated by non - linear regression. Changes in the size and shape of MCTS were monitored every 24 h using Cytation 5 Imaging Reader from BioTek, objective x4.
(§10) Intracellular distribution by confocal fluorescence microscopy
(§11) 10^4 cells/well (A2780 cells) were seeded in complete medium (RPMI) in µ -slide 8 well (Ibidi) (100 µl/well) and left for 24 h to attach to the bottom. Then, the culture medium was removed , and 100 µl of solution of the corresponding complexes (5 µM) was added. The complexes were incubated with the cells for 4 hours. Thereafter, the medium was removed and replaced by RPMI without phenol red , and Hoechst and MitoTracker Green were added at a final concentration of 1 µg/mL. They were incubated with the cells for 30 min in the dark at 37 °C. Images were collected in a sequential mode in a Leica TCS SP8 confocal microscope with a 60x oil immers ion objective, a line average of 4, and a format of […]
(§12) (MTG)→ 500 -550nm, and 488 nm (complexes)→ 680 -730 nm. The confocal pinhole was 1 Airy unit.
(§13) Images were analysed with LAS X Flim FCS software.
(§14) Intracellular distribution by ICP -MS

MCA205 cells = experiment: as above; type: cell-based, mouse; details: for IC50: MCA205, normoxic, 4 h exposure
Description: as §1, §2, §3, §4, §5, §6, §7, §8, §9, §10, §11, §12, §13, §14

[1] = Homo sapiens, dark, total 48 h incubation, read-out: IC50 Dark
[2] = Mus musculus, MCA-205, dark, total 48 h incubation, read-out: IC50 Dark
[3] = dark, total 48 h incubation, read-out: IC50 Dark

SMILES	PI (IC50 dark/IC50 irradiation 740 nm) (A549 cells; A549)	IC50 (A549 cells; Homo sapiens, 740 nm (60 min, 12.60 J·cm^−2), total 48 h, read-out: IC50 Irrad. 740 nm)	IC50 (A549 cells; [1])	PI (IC50 dark/IC50 irradiation 740 nm) (MCA205 cells; MCA205)	IC50 (MCA205 cells; Mus musculus, MCA-205, 740 nm (60 min, 12.60 J·cm^−2), total 48 h, read-out: IC50 Irrad. 740 nm)	IC50 (MCA205 cells; [2])	IC50 (A549 cells; [3])	IC50 (MCA205 cells; [3])
C=Cc1c(C)c2cc3nc(c(CC(=O)O)c4[nH]c(cc5nc(cc1[nH]2)C(C)=C5CC)c(C)c4C(=O)O)[C@@H](CCC(=O)O)[C@@H]3C [Ce6, Chlorin e6]	≥17	5.86 ± 0.82 µM	> 100 µM	≥53	1.88 ± 0.2 µM	> 100 µM		
O=C1[O][Pt]2([NH][C@@H]3CCCC[C@H]3[NH]2)[O]C1=O [Oxaliplatin]							2.8 ± 0.13 µM	0.8 ± 0.09 µM
Cc1cc(Nc2ncc(Cl)c(Nc3ccccc3S(=O)(=O)C(C)C)n2)c(OC(C)C)cc1C1CCNCC1 [Ceritinib]			3.8 ± 0.09 µM			6.97 ± 0.7 µM		
